Test results taken from patent publication US7652029B2, “Therapeutic compound and treatments” (priority 2004, dated 2010).

Legend:
[1] = system: CCRF-CEM; assay: NCI multiple cell line test (SRB); format: cell-based, human; details: CCRF-CEM (Leukemia), 48 h
[2] = system: K-562; assay: NCI multiple cell line test (SRB); format: cell-based, human; details: K-562 (Leukemia), 48 h
[3] = system: NCI-H226; assay: NCI multiple cell line test (SRB); format: cell-based, human; details: NCI-H226 (Non-Small Cell Lung Cancer), 48 h
[4] = system: NCI-H23; assay: NCI multiple cell line test (SRB); format: cell-based, human; details: NCI-H23 (Non-Small Cell Lung Cancer), 48 h
[5] = system: NCI-H460; assay: NCI multiple cell line test (SRB); format: cell-based, human
[6] = system: COLO 205; assay: NCI multiple cell line test (SRB); format: cell-based, human; details: COLO 205 (Colon Cancer), 48 h
[7] = system: HCT-15; assay: NCI multiple cell line test (SRB); format: cell-based, human; details: HCT-15 (Colon Cancer), 48 h
[8] = system: SNB-19; assay: NCI multiple cell line test (SRB); format: cell-based, human; details: SNB-19 (CNS Cancer), 48 h
[9] = system: U251; assay: NCI multiple cell line test (SRB); format: cell-based, human; details: U251 (CNS Cancer), 48 h
[10] = system: SK-MEL-28; assay: NCI multiple cell line test (SRB); format: cell-based, human; details: SK-MEL-28 (Melanoma), 48 h
[11] = system: SK-MEL-5; assay: NCI multiple cell line test (SRB); format: cell-based, human; details: SK-MEL-5 (Melanoma), 48 h
[12] = system: UACC-257; assay: NCI multiple cell line test (SRB); format: cell-based, human; details: UACC-257 (Melanoma), 48 h
[13] = system: OVCAR-5; assay: NCI multiple cell line test (SRB); format: cell-based, human; details: OVCAR-5 (Ovarian Cancer), 48 h
[14] = system: OVCAR-8; assay: NCI multiple cell line test (SRB); format: cell-based, human; details: OVCAR-8 (Ovarian Cancer), 48 h
[15] = system: TK-10; assay: NCI multiple cell line test (SRB); format: cell-based, human; details: TK-10 (Renal Cancer), 48 h
[16] = system: UO-31; assay: NCI multiple cell line test (SRB); format: cell-based, human; details: UO-31 (Renal Cancer), 48 h
[17] = system: HS 578T; assay: NCI multiple cell line test (SRB); format: cell-based, human; details: HS 578T (Breast Cancer), 48 h
[18] = system: MDA-MB-435; assay: NCI multiple cell line test (SRB); format: cell-based, human; details: MDA-MB-435 (Breast Cancer), 48 h
[19] = system: BT-549; assay: NCI multiple cell line test (SRB); format: cell-based, human; details: BT-549 (Breast Cancer), 48 h
[20] = system: T-47D; assay: NCI multiple cell line test (SRB); format: cell-based, human; details: T-47D (Breast Cancer), 48 h
[21] = system: H226 cells; assay: Growth response, MTT dye conversion assay; format: cell-based, human
[22] = system: MCF-7 cells; assay: Growth response, MTT dye conversion assay; format: cell-based, human; details: FIG. 7; 48 hours; compared with cisplatin
[23] = system: SCK cells; assay: Growth response, MTT dye conversion assay; format: cell-based, murine; details: FIG. 8; 48 hours; compared with cisplatin
[24] = system: Lewis murine lung cells; assay: Growth response, MTT dye conversion assay; format: cell-based; details: FIG. 9; mouse lung cell line
[25] = system: A549 cells; assay: Growth response, MTT dye conversion assay; format: cell-based, human; details: low doses (FIG. 13 as printed)
[26] = system: ACHN cells; assay: Growth response, MTT dye conversion assay; format: cell-based, human; details: low doses (FIG. 14 as printed)
[27] = Homo sapiens, read-out: −log10GI50 (converted)
[28] = NCI-H460 (Non-Small Cell Lung Cancer), 48 h

## COC(=O)C1=C(C(=O)OC)SC2(S1)C(C(=O)OC)=C(C(=O)OC)SC1=C2c2cccc(OC)c2N(C(=O)CN2C(=O)CCC2=O)C1(C)C [MT477]
[1]
  −log10LC50: * (effect not reached at maximum dose of 0.05 millimolar)
  −log10TGI: * (effect not reached at maximum dose of 0.05 millimolar)
[1]; [27]
  IC50: 3.24 µM
[2]; Homo sapiens, K562, read-out: −log10GI50 (converted)
  IC50: 1.62 µM
[2]
  −log10LC50: * (effect not reached at maximum dose of 0.05 millimolar)
  −log10TGI: 4.99 molar
[3]; [27]
  IC50: 7.08 µM
[3]
  −log10LC50: * (effect not reached at maximum dose of 0.05 millimolar)
  −log10TGI: 4.72 molar
[4]; [27]
  IC50: 0.955 µM
[4]
  −log10LC50: 5.42 molar
  −log10TGI: 5.72 molar
[5]; Homo sapiens, NCI-H460 (Non-Small Cell Lung Cancer), 48 h, read-out: −log10GI50 (converted)
  IC50: 1.74 µM
[5]; Homo sapiens, NCI-H460, MT477 ACTUAL
  GI50: 1.74 µM
[5]; MT477 ACTUAL
  Activity against lung cancer NCI-H460: Yes
[5]; [28]
  −log10LC50: * (effect not reached at maximum dose of 0.05 millimolar)
  −log10TGI: * (effect not reached at maximum dose of 0.05 millimolar)
[6]
  −log10LC50: * (effect not reached at maximum dose of 0.05 millimolar)
  −log10TGI: 5.19 molar
[6]; [27]
  IC50: 1.66 µM
[7]
  −log10LC50: 4.69 molar
  −log10TGI: 5.27 molar
[7]; [27]
  IC50: 1.48 µM
[8]; [27]
  IC50: 7.94 µM
[8]
  −log10LC50: 4.46 molar
  −log10TGI: 4.78 molar
[9]; Homo sapiens, U-251, read-out: −log10GI50 (converted)
  IC50: 2 µM
[9]
  −log10LC50: 4.72 molar
  −log10TGI: 5.14 molar
[10]; [27]
  IC50: 1.55 µM
[10]
  −log10LC50: * (effect not reached at maximum dose of 0.05 millimolar)
  −log10TGI: 5.27 molar
[11]; [27]
  IC50: 6.17 µM
[11]
  −log10LC50: * (effect not reached at maximum dose of 0.05 millimolar)
  −log10TGI: 4.51 molar
[12]; [27]
  IC50: 1.48 µM
[12]
  −log10LC50: 4.55 molar
  −log10TGI: 5.53 molar
[13]; [27]
  IC50: 8.91 µM
[13]
  −log10LC50: 4.53 molar
  −log10TGI: 4.79 molar
[14]; [27]
  IC50: 6.92 µM
[14]
  −log10LC50: 4.37 molar
  −log10TGI: 4.77 molar
[15]; [27]
  IC50: 1.58 µM
[15]
  −log10LC50: 4.75 molar
  −log10TGI: 5.34 molar
[16]; [27]
  IC50: 3.39 µM
[16]
  −log10LC50: * (effect not reached at maximum dose of 0.05 millimolar)
  −log10TGI: 4.81 molar
[17]
  −log10LC50: * (effect not reached at maximum dose of 0.05 millimolar)
  −log10TGI: 4.68 molar
[17]; [27]
  IC50: 6.61 µM
[18]; [27]
  IC50: 1.7 µM
[18]
  −log10LC50: 4.58 molar
  −log10TGI: 5.27 molar
[19]
  −log10LC50: * (effect not reached at maximum dose of 0.05 millimolar)
  −log10TGI: 4.86 molar
[19]; [27]
  IC50: 3.55 µM
[20]; Homo sapiens, T47D, read-out: −log10GI50 (converted)
  IC50: 1.51 µM
[20]
  −log10LC50: * (effect not reached at maximum dose of 0.05 millimolar)
  −log10TGI: 5.40 molar
[21]; FIG. 5, 48 hours, compared with cisplatin
  growth response: more effective than cisplatin
[21]; H226 cells, low doses (FIG. 11 as printed)
  growth response at low concentrations: effective even at very low doses, including micromolar dosages
[22]
  growth response: more effective than cisplatin
[23]
  growth response: more effective than cisplatin
[24]
  growth response: effective in human and mouse cell lung lines
[25]
  growth response at low concentrations: effective even at very low doses, including micromolar dosages
[26]
  growth response at low concentrations: effective even at very low doses, including micromolar dosages
